Measurements from patent US6001359A, “Diagnosis of colon carcinoma using monoclonal antibodies to human influx peptide transporter” (Eli Lilly and Company, priority 1997, dated 1999).

What was measured:
[1] = target: T1, influx peptide transporter (Homo sapiens, UniProt Q12864); experiment: [14C]cephalexin uptake by CHO-K1 transfectant Clone 9 (plasmid pPSJ179); type: cell-based
T1 construct: about 120 kDa antigen of MAb PTC13G6
T1 sequence (Q12864 23-832): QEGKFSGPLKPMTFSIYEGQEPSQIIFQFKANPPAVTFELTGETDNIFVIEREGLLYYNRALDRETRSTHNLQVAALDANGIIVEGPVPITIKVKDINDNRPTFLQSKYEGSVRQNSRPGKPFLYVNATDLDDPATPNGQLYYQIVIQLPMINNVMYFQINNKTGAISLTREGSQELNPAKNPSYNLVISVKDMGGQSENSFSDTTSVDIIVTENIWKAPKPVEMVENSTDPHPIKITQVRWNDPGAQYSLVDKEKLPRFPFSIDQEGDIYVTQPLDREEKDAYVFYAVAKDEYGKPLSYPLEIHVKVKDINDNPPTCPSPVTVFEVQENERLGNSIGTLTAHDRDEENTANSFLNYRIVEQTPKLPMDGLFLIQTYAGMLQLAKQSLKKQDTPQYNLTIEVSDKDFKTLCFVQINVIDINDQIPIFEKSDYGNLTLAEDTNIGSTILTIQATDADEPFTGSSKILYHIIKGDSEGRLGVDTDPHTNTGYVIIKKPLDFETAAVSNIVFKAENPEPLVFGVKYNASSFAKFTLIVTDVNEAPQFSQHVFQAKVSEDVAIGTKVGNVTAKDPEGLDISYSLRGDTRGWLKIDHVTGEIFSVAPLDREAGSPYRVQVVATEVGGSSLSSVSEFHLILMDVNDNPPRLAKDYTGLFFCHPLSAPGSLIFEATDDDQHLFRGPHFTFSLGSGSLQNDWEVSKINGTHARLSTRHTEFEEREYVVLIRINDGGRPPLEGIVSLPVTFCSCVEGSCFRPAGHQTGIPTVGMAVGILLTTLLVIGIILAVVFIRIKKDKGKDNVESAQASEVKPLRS
Method: (§1) The samples were incubated at room temperature for 20 minutes.

CHO-K1 cells = experiment: [14C]cephalexin uptake by control CHO-K1 cells (plasmid pRc/RSV); type: cell-based, Chinese hamster
Method: as §1

[14C]-Cephalexin Uptake in presence of bestatin ([1]; 1 mM [14C]cephalexin + 15 mM bestatin): 0.42 ± 0.08 nmol/mg total cell protein
effect on uptake of 1 mM cephalexin by the transfectant ([1]; 15 mM bestatin or 25 mM unlabelled cephalexin): inhibited
SMILES: CC(C)C[C@H](NC(=O)[C@@H](O)[C@H](N)Cc1ccccc1)C(=O)O [bestatin]
drug uptake on coincubation, compared with control cells ([1]; coincubation with 1 mM [14C]cephalexin): decreased drug uptake in the representative transfectant (Clone 9) to the level of the control cells
[14C]-Cephalexin Uptake in presence of bestatin (CHO-K1 cells; Control cells, 1 mM [14C]cephalexin + 15 mM bestatin): 0.38 ± 0.08 nmol/mg total cell protein
effect on transport of 1 mM [14C]cephalexin by the control cells (CHO-K1 cells; control cells, bestatin or cephalexin): not inhibited significantly
